The NIST ThermoML archive (doi:10.1016/j.tca.2015.02.020)
Numbers after ± are expanded uncertainties.

Experiment: molar heat capacity at constant pressure; xn = mol fraction of the nth substance listed
Settings: 101 kPa, Liquid, Small sample (50 mg) DSC

NCCO [2-aminoethan-1-ol] + O
molar heat capacity at constant pressure (207.9 K, x1 = 0.73): 113.75 ± 23 J/K/mol
molar heat capacity at constant pressure (210.55 K, x1 = 0.19): 71 ± 14 J/K/mol
molar heat capacity at constant pressure (211.06 K, x1 = 0.31): 79.98 ± 3.5 J/K/mol
molar heat capacity at constant pressure (211.07 K, x1 = 0.23): 73.71 ± 3.1 J/K/mol
molar heat capacity at constant pressure (212.29 K, x1 = 0.23): 70.92 ± 14 J/K/mol
molar heat capacity at constant pressure (212.29 K, x1 = 0.31): 77.16 ± 15 J/K/mol
molar heat capacity at constant pressure (212.64 K, x1 = 0.73): 114.74 ± 23 J/K/mol
molar heat capacity at constant pressure (214.38 K, x1 = 0.23): 74.55 ± 3.1 J/K/mol
molar heat capacity at constant pressure (214.38 K, x1 = 0.31): 80.61 ± 3.5 J/K/mol
molar heat capacity at constant pressure (215.29 K, x1 = 0.19): 72.31 ± 14 J/K/mol
molar heat capacity at constant pressure (217.03 K, x1 = 0.23): 72.04 ± 15 J/K/mol
molar heat capacity at constant pressure (217.03 K, x1 = 0.31): 78.1 ± 16 J/K/mol
molar heat capacity at constant pressure (217.38 K, x1 = 0.73): 115.23 ± 23 J/K/mol
molar heat capacity at constant pressure (220.03 K, x1 = 0.19): 73.62 ± 15 J/K/mol
molar heat capacity at constant pressure (221.01 K, x1 = 0.31): 81.87 ± 3.5 J/K/mol
molar heat capacity at constant pressure (221.76 K, x1 = 0.23): 73.15 ± 15 J/K/mol
molar heat capacity at constant pressure (221.77 K, x1 = 0.31): 79.36 ± 16 J/K/mol
molar heat capacity at constant pressure (222.11 K, x1 = 0.73): 115.72 ± 23 J/K/mol
molar heat capacity at constant pressure (224.33 K, x1 = 0.31): 82.81 ± 3.5 J/K/mol
molar heat capacity at constant pressure (224.77 K, x1 = 0.19): 74.66 ± 15 J/K/mol
molar heat capacity at constant pressure (226.51 K, x1 = 0.23): 74.27 ± 15 J/K/mol
molar heat capacity at constant pressure (226.52 K, x1 = 0.31): 80.3 ± 16 J/K/mol
molar heat capacity at constant pressure (226.86 K, x1 = 0.73): 116.22 ± 23 J/K/mol
molar heat capacity at constant pressure (229.51 K, x1 = 0.19): 75.97 ± 15 J/K/mol
molar heat capacity at constant pressure (230.97 K, x1 = 0.23): 80.69 ± 3.4 J/K/mol
molar heat capacity at constant pressure (230.97 K, x1 = 0.31): 84.38 ± 3.5 J/K/mol
molar heat capacity at constant pressure (231.24 K, x1 = 0.23): 75.67 ± 15 J/K/mol
molar heat capacity at constant pressure (231.25 K, x1 = 0.31): 81.24 ± 16 J/K/mol
molar heat capacity at constant pressure (231.6 K, x1 = 0.73): 116.22 ± 23 J/K/mol
molar heat capacity at constant pressure (234.25 K, x1 = 0.19): 77.02 ± 15 J/K/mol
molar heat capacity at constant pressure (234.28 K, x1 = 0.31): 85.32 ± 3.8 J/K/mol
molar heat capacity at constant pressure (234.29 K, x1 = 0.23): 81.25 ± 3.4 J/K/mol
molar heat capacity at constant pressure (235.99 K, x1 = 0.23): 76.78 ± 15 J/K/mol
molar heat capacity at constant pressure (236 K, x1 = 0.31): 82.81 ± 17 J/K/mol
molar heat capacity at constant pressure (236.34 K, x1 = 0.73): 116.71 ± 23 J/K/mol
molar heat capacity at constant pressure (238.99 K, x1 = 0.19): 78.07 ± 16 J/K/mol
molar heat capacity at constant pressure (240.72 K, x1 = 0.23): 78.18 ± 16 J/K/mol
molar heat capacity at constant pressure (240.73 K, x1 = 0.31): 84.06 ± 17 J/K/mol
molar heat capacity at constant pressure (240.93 K, x1 = 0.23): 82.93 ± 3.6 J/K/mol
molar heat capacity at constant pressure (240.93 K, x1 = 0.31): 87.2 ± 3.8 J/K/mol
molar heat capacity at constant pressure (241.08 K, x1 = 0.73): 118.2 ± 24 J/K/mol
molar heat capacity at constant pressure (241.4 K, x1 = 0.19): 78.86 ± 3.4 J/K/mol
molar heat capacity at constant pressure (243.73 K, x1 = 0.19): 79.12 ± 16 J/K/mol
molar heat capacity at constant pressure (244.25 K, x1 = 0.23): 84.04 ± 3.6 J/K/mol
molar heat capacity at constant pressure (244.25 K, x1 = 0.31): 88.14 ± 3.8 J/K/mol
molar heat capacity at constant pressure (244.73 K, x1 = 0.19): 80.17 ± 3.4 J/K/mol
molar heat capacity at constant pressure (245.47 K, x1 = 0.23): 79.57 ± 16 J/K/mol
molar heat capacity at constant pressure (245.47 K, x1 = 0.31): 85.63 ± 17 J/K/mol
molar heat capacity at constant pressure (245.83 K, x1 = 0.73): 120.18 ± 24 J/K/mol
molar heat capacity at constant pressure (247.57 K, x1 = 0.23): 85.16 ± 3.6 J/K/mol
molar heat capacity at constant pressure (247.57 K, x1 = 0.31): 89.08 ± 3.8 J/K/mol
molar heat capacity at constant pressure (247.58 K, x1 = 0.19): 81.21 ± 3.4 J/K/mol
molar heat capacity at constant pressure (248.48 K, x1 = 0.19): 80.17 ± 16 J/K/mol
molar heat capacity at constant pressure (250.22 K, x1 = 0.23): 80.69 ± 16 J/K/mol
molar heat capacity at constant pressure (250.23 K, x1 = 0.31): 86.57 ± 17 J/K/mol
molar heat capacity at constant pressure (250.58 K, x1 = 0.73): 122.15 ± 25 J/K/mol
molar heat capacity at constant pressure (250.9 K, x1 = 0.23): 86.28 ± 3.6 J/K/mol
molar heat capacity at constant pressure (250.9 K, x1 = 0.31): 90.02 ± 3.8 J/K/mol
molar heat capacity at constant pressure (251.37 K, x1 = 0.19): 82.79 ± 3.4 J/K/mol
molar heat capacity at constant pressure (253.23 K, x1 = 0.19): 80.95 ± 16 J/K/mol
molar heat capacity at constant pressure (254.22 K, x1 = 0.31): 91.28 ± 3.8 J/K/mol
molar heat capacity at constant pressure (254.23 K, x1 = 0.23): 87.11 ± 3.6 J/K/mol
molar heat capacity at constant pressure (254.7 K, x1 = 0.19): 84.1 ± 3.7 J/K/mol
molar heat capacity at constant pressure (254.97 K, x1 = 0.23): 82.37 ± 16 J/K/mol
molar heat capacity at constant pressure (254.98 K, x1 = 0.31): 88.14 ± 18 J/K/mol
molar heat capacity at constant pressure (255.33 K, x1 = 0.73): 124.13 ± 25 J/K/mol
molar heat capacity at constant pressure (257.98 K, x1 = 0.19): 81.74 ± 17 J/K/mol
molar heat capacity at constant pressure (259.72 K, x1 = 0.23): 83.48 ± 17 J/K/mol
molar heat capacity at constant pressure (259.72 K, x1 = 0.31): 89.39 ± 18 J/K/mol
molar heat capacity at constant pressure (260.08 K, x1 = 0.73): 126.11 ± 25 J/K/mol
molar heat capacity at constant pressure (260.88 K, x1 = 0.23): 89.07 ± 3.9 J/K/mol
molar heat capacity at constant pressure (260.88 K, x1 = 0.31): 93.16 ± 4.1 J/K/mol
molar heat capacity at constant pressure (261.35 K, x1 = 0.19): 86.45 ± 3.7 J/K/mol
molar heat capacity at constant pressure (262.73 K, x1 = 0.19): 82.79 ± 17 J/K/mol
molar heat capacity at constant pressure (264.2 K, x1 = 0.23): 90.18 ± 3.9 J/K/mol
molar heat capacity at constant pressure (264.2 K, x1 = 0.31): 94.1 ± 4.1 J/K/mol
molar heat capacity at constant pressure (264.47 K, x1 = 0.23): 84.88 ± 17 J/K/mol
molar heat capacity at constant pressure (264.48 K, x1 = 0.31): 90.96 ± 18 J/K/mol
molar heat capacity at constant pressure (264.67 K, x1 = 0.19): 87.5 ± 3.7 J/K/mol
molar heat capacity at constant pressure (264.83 K, x1 = 0.73): 128.09 ± 26 J/K/mol
molar heat capacity at constant pressure (267.48 K, x1 = 0.19): 83.57 ± 17 J/K/mol
molar heat capacity at constant pressure (269.23 K, x1 = 0.23): 86.28 ± 17 J/K/mol
molar heat capacity at constant pressure (269.23 K, x1 = 0.31): 92.22 ± 19 J/K/mol
molar heat capacity at constant pressure (269.58 K, x1 = 0.73): 130.07 ± 26 J/K/mol
molar heat capacity at constant pressure (270.7 K, x1 = 0.73): 140.45 ± 5.9 J/K/mol
molar heat capacity at constant pressure (270.86 K, x1 = 0.23): 91.58 ± 3.9 J/K/mol
molar heat capacity at constant pressure (270.86 K, x1 = 0.31): 95.98 ± 4.1 J/K/mol
molar heat capacity at constant pressure (271.34 K, x1 = 0.19): 89.86 ± 3.9 J/K/mol
molar heat capacity at constant pressure (272.24 K, x1 = 0.19): 84.36 ± 17 J/K/mol
molar heat capacity at constant pressure (274.02 K, x1 = 0.23): 87.67 ± 18 J/K/mol
molar heat capacity at constant pressure (274.02 K, x1 = 0.31): 93.79 ± 19 J/K/mol
molar heat capacity at constant pressure (274.07 K, x1 = 0.73): 140.95 ± 5.9 J/K/mol
molar heat capacity at constant pressure (274.23 K, x1 = 0.23): 92.42 ± 3.9 J/K/mol
molar heat capacity at constant pressure (274.23 K, x1 = 0.31): 96.61 ± 4.1 J/K/mol
molar heat capacity at constant pressure (274.39 K, x1 = 0.73): 132.04 ± 27 J/K/mol
molar heat capacity at constant pressure (274.73 K, x1 = 0.19): 90.65 ± 3.9 J/K/mol
molar heat capacity at constant pressure (277.12 K, x1 = 0.19): 84.88 ± 17 J/K/mol
molar heat capacity at constant pressure (278.94 K, x1 = 0.23): 88.79 ± 18 J/K/mol
molar heat capacity at constant pressure (278.94 K, x1 = 0.31): 95.04 ± 19 J/K/mol
molar heat capacity at constant pressure (279.3 K, x1 = 0.73): 133.53 ± 27 J/K/mol
molar heat capacity at constant pressure (280.95 K, x1 = 0.73): 141.44 ± 5.9 J/K/mol
molar heat capacity at constant pressure (281.11 K, x1 = 0.23): 93.26 ± 3.9 J/K/mol
molar heat capacity at constant pressure (281.11 K, x1 = 0.31): 97.86 ± 4.1 J/K/mol
molar heat capacity at constant pressure (281.61 K, x1 = 0.19): 91.69 ± 3.9 J/K/mol
molar heat capacity at constant pressure (282.05 K, x1 = 0.19): 85.67 ± 17 J/K/mol
molar heat capacity at constant pressure (283.85 K, x1 = 0.23): 89.91 ± 18 J/K/mol
molar heat capacity at constant pressure (283.85 K, x1 = 0.31): 96.29 ± 19 J/K/mol
molar heat capacity at constant pressure (284.22 K, x1 = 0.73): 134.02 ± 27 J/K/mol
molar heat capacity at constant pressure (284.4 K, x1 = 0.73): 141.44 ± 5.9 J/K/mol
molar heat capacity at constant pressure (284.56 K, x1 = 0.23): 93.26 ± 3.9 J/K/mol
molar heat capacity at constant pressure (284.56 K, x1 = 0.31): 97.86 ± 4.1 J/K/mol
molar heat capacity at constant pressure (285.05 K, x1 = 0.19): 91.96 ± 3.9 J/K/mol
